Here are results for 21 molecules from patent US20240199692A1 (priority 2019, published 2024).

*1 amine or outer side, *2 acyl side, *3 side chain or, on linkers, in order; H or OH if unused. Where a SMILES comes first, the peptide text is derived from it. Bridges are numbered along the chain shown (N, C = ends). [ ]: non-standard residue; d: D form. The star is where a group is joined. Phenylsulfonyl(4-anisamido) = COc1ccc(C(=O)Nc2ccc(S(=O)(=O)*)cc2)cc1; Benzoyl(4-(4-EtNHCO-PhO)) = CCNC(=O)c1ccc(Oc2ccc(C(=O)*)cc2)cc1; Benzoyl(4-O-C6H4-4-CONHMe) = CNC(=O)c1ccc(Oc2ccc(C(=O)*)cc2)cc1; Benzenesulfonyl(4-OPh) = O=S(=O)(c1ccc(Oc2ccccc2)cc1)*; X16 = O=C(O)CCNC(=O)c1ccc(Oc2ccc(C(=O)*)cc2)cc1; X2 = CCOc1ccc(C(=O)Nc2ccc(S(=O)(=O)*)cc2)cc1; Benzoyl(4-OPh) = O=C(c1ccc(Oc2ccccc2)cc1)*; d(γGlu) = O=C(O)[C@@H](CCC(=O)[*:2])N[*:1]; d(βAsp) = O=C(O)[C@@H](CC(=O)[*:2])N[*:1]; X7 = O=S(=O)(c1ccc(-c2ccc(OCCO)cc2)cc1)*; X5 = O=S(=O)(c1ccc(-c2ccc(CO)cc2)cc1)*; NMeY = CN[C@@H](Cc1ccc(O)cc1)C(=O)O; NMeI = CC[C@H](C)[C@H](NC)C(=O)O; NMeE = CN[C@@H](CCC(=O)O)C(=O)O; NMeN = CN[C@@H](CC(N)=O)C(=O)O; Dap(Me) = CNC[C@H](N)C(=O)O; NMeV = CN[C@H](C(=O)O)C(C)C; β3hP = O=C(O)C[C@@H]1CCCN1; Orn = NCCC[C@H](N)C(=O)O; Aze = O=C(O)[C@@H]1CCN1; Dab = NCC[C@H](N)C(=O)O; Dap = NC[C@H](N)C(=O)O; Aib = CC(C)(N)C(=O)O; Ahx = NCCCCCC(=O)O; Ava = NCCCCC(=O)O; GABA = NCCCC(=O)O; βAla = NCCC(=O)O

As a reminder, the IC50 is the concentration needed to halve the response being measured.

One assay addresses T1, MMP2 (Homo sapiens, UniProt P08253).
T1 sequence (P08253 110-660): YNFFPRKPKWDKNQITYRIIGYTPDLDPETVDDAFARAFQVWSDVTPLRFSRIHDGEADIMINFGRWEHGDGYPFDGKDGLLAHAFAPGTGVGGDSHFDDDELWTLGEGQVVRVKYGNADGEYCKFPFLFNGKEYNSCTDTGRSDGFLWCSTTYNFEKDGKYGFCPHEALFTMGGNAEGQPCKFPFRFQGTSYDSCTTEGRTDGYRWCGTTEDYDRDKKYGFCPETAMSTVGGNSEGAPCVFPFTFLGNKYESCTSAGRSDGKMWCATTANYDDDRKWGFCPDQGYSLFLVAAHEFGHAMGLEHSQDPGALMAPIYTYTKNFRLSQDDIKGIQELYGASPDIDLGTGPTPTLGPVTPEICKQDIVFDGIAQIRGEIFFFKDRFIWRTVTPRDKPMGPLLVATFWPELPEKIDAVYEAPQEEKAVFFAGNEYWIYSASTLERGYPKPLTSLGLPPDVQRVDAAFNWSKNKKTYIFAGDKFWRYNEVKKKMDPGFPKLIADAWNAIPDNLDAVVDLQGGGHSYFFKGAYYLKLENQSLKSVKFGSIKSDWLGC
Kind of assay: Inhibitory effects on human MMP2 (Method 1), enzyme assay with MOCAc-Pro-Leu-Gly-Leu-A2pr(Dnp)-Ala-Arg-NH2 substrate, 96-well. In kind it is biochemical. The note with it: Test Example No. 1-1 (Method 1, 96-well microplate); read-out: Human MMP2, IC50. How it is done:
In a reaction solution [50 mmol/L Tris-HCl (pH 7.5), 150 mmol/L NaCl, 10 mmol/L CaCl2, 0.05% Brij L23], 100 μg/mL human recombinant MMP2 enzyme and 1 mmol/L 4-Aminophenylmercuric acetate were mixed together, and reacted at 37° C. for 60 minutes. The human MMP2 activated through the reaction was poured into a 96-well microplate to reach a final concentration of 0.7 or 7 ng/mL.
In the case of `CC[C@H](C)[C@@H](C(=O)N1CCC[C@H]1CC(N)=O)N(C)C(=O)[C@H](CC(C)C)NC(=O)[C@H](CNC)NC(=O)[C@H](CC(=O)O)NC(=O)[C@H](CC(N)=O)N(C)C(=O)CCCNC(=O)c1ccc(Oc2ccccc2)cc1` [Compound 154] ({Benzoyl(4-OPh)-GABA}-[NMeN]D[Dap(Me)]L[NMeI][β3hP]-NH2; N-terminus assumed), the IC50 amounted to 0.44 nM.
`CC[C@H](C)[C@@H](C(=O)N1CCC[C@H]1CC(N)=O)N(C)C(=O)[C@H](CC(C)C)NC(=O)[C@H](CCN)NC(=O)C[C@@H](NS(=O)(=O)c1ccc(NC(=O)c2ccc(OC)cc2)cc1)C(=O)O` [Compound 694] ({Phenylsulfonyl(4-anisamido)-d(βAsp)}-[Dab]L[NMeI][β3hP]-NH2; N-terminus assumed): the IC50 stood at 0.094 nM.
With `CC[C@H](C)[C@@H](C(=O)N1CCC[C@H]1C(N)=O)N(C)C(=O)[C@H](CC(C)C)NC(=O)[C@H](CCN)NC(=O)[C@H](CC(=O)O)NC(=O)[C@H](CC(N)=O)NC(=O)CCCNC(=O)c1ccc(Oc2ccccc2)cc1` [Compound 107] ({Benzoyl(4-OPh)-GABA}-ND[Dab]L[NMeI]P-NH2; N-terminus assumed), the IC50 is 0.32 nM.
Still for that read-out and setting: as for `CNC(=O)c1ccc(Oc2ccc(C(=O)NCCCC(=O)N[C@@H](CC(N)=O)C(=O)N[C@@H](CC(=O)O)C(=O)N[C@@H](C)C(=O)N[C@@H](CC(C)C)C(=O)N[C@@H](CCSC)C(=O)N3CCC[C@H]3C(N)=O)cc2)cc1` [Compound 177, N^2-(4-{4-[4-(methylcarbamoyl)phenoxy]benzamido}butanoyl)-L-asparaginyl-L-α-aspartyl-L-alanyl-L-leucyl-L-methionyl-L-prolinamide] ({Benzoyl(4-O-C6H4-4-CONHMe)-GABA}-NDALMP-NH2), the figure is 0.21 nM; as for `CC[C@H](C)[C@@H](C(=O)N1CCC[C@H]1C(N)=O)N(C)C(=O)[C@H](CC(C)C)NC(=O)[C@H](C)NC(=O)[C@H](CC(=O)O)NC(=O)[C@H](Cc1ccc(O)cc1)N(C)C(=O)CCCNC(=O)c1ccc(Oc2ccccc2)cc1` [Compound 129] ({Benzoyl(4-OPh)-GABA}-[NMeY]DAL[NMeI]P-NH2), 0.46 nM; as for `CC[C@H](C)[C@@H](C(=O)N1CCC[C@H]1C(N)=O)N(C)C(=O)[C@H](CC(C)C)NC(=O)[C@H](CCN)NC(=O)[C@H](CC(=O)O)NC(=O)[C@H](C(C)C)N(C)C(=O)CCCNC(=O)c1ccc(Oc2ccccc2)cc1` [Compound 135] ({Benzoyl(4-OPh)-GABA}-[NMeV]D[Dab]L[NMeI]P-NH2; N-terminus assumed), 9.3 nM.
In the case of `CCNC(=O)c1ccc(Oc2ccc(C(=O)NCCCCC(=O)N[C@@H](CCCCN)C(=O)N[C@@H](CC(=O)O)C(=O)N[C@@H](CCN)C(=O)N[C@@H](CC(C)C)C(=O)N(C)[C@H](C(=O)N3CCC[C@H]3CC(N)=O)[C@@H](C)CC)cc2)cc1` [Compound 193] ({Benzoyl(4-(4-EtNHCO-PhO))-Ava}-KD[Dab]L[NMeI][β3hP]-NH2; N-terminus assumed), the IC50 is 1.7 nM.
The same measure, in the same setting: in the case of `CC(C)C[C@H](NC(=O)[C@H](CCN)NC(=O)[C@H](CC(=O)O)NC(=O)[C@H](CCCN)NC(=O)CCCNC(=O)c1ccc(Oc2ccccc2)cc1)C(=O)N(C)[C@@H](CCC(=O)O)C(=O)N1CCC[C@H]1CC(N)=O` [Compound 145] ({Benzoyl(4-OPh)-GABA}-[Orn]D[Dab]L[NMeE][β3hP]-NH2; N-terminus assumed) it was 0.72 nM; in that of `CC[C@H](C)[C@@H](C(=O)N1CCC[C@H]1CC(N)=O)N(C)C(=O)[C@H](CC(C)C)NC(=O)[C@H](CCN)NC(=O)C[C@@H](NS(=O)(=O)c1ccc(-c2ccc(CO)cc2)cc1)C(=O)O` [Compound 642] ({X5-d(βAsp)}-[Dab]L[NMeI][β3hP]-NH2; N-terminus assumed), 1.6 nM; in that of `CC[C@H](C)[C@@H](C(=O)NC(C)(C)C(N)=O)N(C)C(=O)[C@H](CC(C)C)NC(=O)[C@H](C)NC(=O)[C@H](CC(=O)O)NC(=O)[C@H](CC(N)=O)N(C)C(=O)CCCNC(=O)c1ccc(Oc2ccccc2)cc1` [Compound 98] ({Benzoyl(4-OPh)-GABA}-[NMeN]DAL[NMeI][Aib]-NH2; N-terminus assumed), 0.27 nM.
`CCOc1ccc(C(=O)Nc2ccc(S(=O)(=O)N[C@H](CCC(=O)N[C@@H](CCN)C(=O)N[C@@H](CC(C)C)C(=O)N(C)[C@@H](CCC(=O)O)C(=O)N3CCC[C@H]3CC(N)=O)C(=O)O)cc2)cc1` [Compound 702] ({X2-d(γGlu)}-[Dab]L[NMeE][β3hP]-NH2; N-terminus assumed): the IC50 came out at 0.25 nM.
`CC[C@H](C)[C@@H](C(=O)N1CCC[C@H]1CC(N)=O)N(C)C(=O)[C@H](CC(C)C)NC(=O)[C@H](CN)NC(=O)[C@H](CC(=O)O)NC(=O)[C@@H]1CCN1C(=O)CCCNC(=O)c1ccc(Oc2ccccc2)cc1` [Compound 132] ({Benzoyl(4-OPh)-GABA}-[Aze]D[Dap]L[NMeI][β3hP]-NH2; N-terminus assumed): the IC50 is 0.43 nM.
With `CC[C@H](C)[C@@H](C(=O)N1CCC[C@H]1C(N)=O)N(C)C(=O)[C@H](CC(C)C)NC(=O)[C@H](C)NC(=O)[C@H](CC(=O)O)NC(=O)[C@H](C(C)C)N(C)C(=O)CCCNC(=O)c1ccc(Oc2ccccc2)cc1` [Compound 119] ({Benzoyl(4-OPh)-GABA}-[NMeV]DAL[NMeI]P-NH2; N-terminus assumed), the IC50 stood at 0.17 nM.
On the same count and under the same terms, in the case of `CNC(=O)c1ccc(Oc2ccc(C(=O)NCCCCCC(=O)N[C@@H](CCCCN)C(=O)N[C@@H](CC(=O)O)C(=O)N[C@@H](CCN)C(=O)N[C@@H](CC(C)C)C(=O)N(C)[C@@H](CCC(=O)O)C(=O)N3CCC[C@H]3CC(N)=O)cc2)cc1` [Compound 186] ({Benzoyl(4-O-C6H4-4-CONHMe)-Ahx}-KD[Dab]L[NMeE][β3hP]-NH2; N-terminus assumed) it was 2 nM; in that of `CC(C)C[C@H](NC(=O)[C@H](CN)NC(=O)C[C@@H](NS(=O)(=O)c1ccc(-c2ccc(OCCO)cc2)cc1)C(=O)O)C(=O)N(C)[C@@H](CCC(=O)O)C(=O)N1CCC[C@H]1CC(N)=O` [Compound 638] ({X7-d(βAsp)}-[Dap]L[NMeE][β3hP]-NH2; N-terminus assumed), 0.14 nM.
Same read-out and setting: as for `CC[C@H](C)[C@@H](C(=O)N1CCC[C@H]1CC(N)=O)N(C)C(=O)[C@H](CC(C)C)NC(=O)[C@H](CCN)NC(=O)[C@H](CC(=O)O)NC(=O)[C@H](CC(N)=O)N(C)C(=O)CCCNC(=O)c1ccc(Oc2ccccc2)cc1` [Compound 110] ({Benzoyl(4-OPh)-GABA}-[NMeN]D[Dab]L[NMeI][β3hP]-NH2; N-terminus assumed), the figure is 0.37 nM.
As to `CC(C)C[C@H](NC(=O)[C@H](CCN)NC(=O)[C@H](CC(=O)O)NC(=O)[C@H](CC(N)=O)NC(=O)CCCCNC(=O)c1ccc(Oc2ccc(C(=O)NCCC(=O)O)cc2)cc1)C(=O)N(C)[C@@H](CCC(=O)O)C(=O)N1CCC[C@H]1CC(N)=O` [Compound 183] ({X16-Ava}-ND[Dab]L[NMeE][β3hP]-NH2; N-terminus assumed), the IC50 was 7 nM.
The same measure, in the same setting: as for `CCNC(=O)c1ccc(Oc2ccc(C(=O)NCCCCCC(=O)N[C@@H](CCCNC(=N)N)C(=O)N[C@@H](CC(=O)O)C(=O)N[C@@H](CCN)C(=O)N[C@@H](CC(C)C)C(=O)N(C)[C@H](C(=O)N3CCC[C@H]3CC(N)=O)[C@@H](C)CC)cc2)cc1` [Compound 198] ({Benzoyl(4-(4-EtNHCO-PhO))-Ahx}-RD[Dab]L[NMeI][β3hP]-NH2; N-terminus assumed), the figure is 5.1 nM.

The same assay, now with this note: Test Example No. 1-1 (Method 1, 96-well); read-out: Human MMP2, IC50.
As to `CC[C@H](C)[C@@H](C(=O)N1CCC[C@H]1CC(N)=O)N(C)C(=O)[C@@H]1CCCCNC(=O)CCNC(=O)CC[C@H](NC(=O)CCCNS(=O)(=O)c2ccc(Oc3ccccc3)cc2)C(=O)N[C@@H](CC(=O)O)C(=O)N[C@@H](CCN)C(=O)N1` [Compound 894] ({Benzenesulfonyl(4-OPh)-GABA}-ED[Dab]K[NMeI][β3hP]-NH2; linker 1-4 via βAla (inferred); N-terminus assumed), the IC50 worked out at 1.1 nM.
The same measure, in the same setting: as for `CC[C@H](C)[C@@H](C(=O)N1CCC[C@H]1CC(=O)O)N(C)C(=O)[C@@H]1CCCCNC(=O)CNC(=O)CC[C@H](NC(=O)CCCNS(=O)(=O)c2ccc(Oc3ccccc3)cc2)C(=O)N[C@@H](CC(=O)O)C(=O)N[C@@H](C)C(=O)N1` [Compound 891] ({Benzenesulfonyl(4-OPh)-GABA}-EDAK[NMeI][β3hP]-OH; linker 1-4 via G), the figure is 1.6 nM.
For `CC[C@H](C)[C@@H](C(=O)N1CCC[C@H]1CC(N)=O)N(C)C(=O)[C@@H]1CCCCNC(=O)CNC(=O)CC[C@H](NC(=O)CCCNS(=O)(=O)c2ccc(Oc3ccccc3)cc2)C(=O)N[C@@H](CC(=O)O)C(=O)N[C@@H](C)C(=O)N1` [Compound 892, [(2S,5S,8S,20S)-8-[{(2S,3S)-1-[(2S)-2-(2-amino-2-oxoethyl)pyrrolidin-1-yl]-3-methyl-1-oxopentan-2-yl}(methyl)carbamoyl]-5-methyl-3,6,14,17,21-pentaoxo-20-{4-[(4-phenoxybenzene-1-sulfonyl)amino]butanamido}-1,4,7,13,16-pentaazacyclohenicosan-2-yl]acetic acid] ({Benzenesulfonyl(4-OPh)-GABA}-EDAK[NMeI][β3hP]-NH2; linker 1-4 via G), the IC50 came out at 1.7 nM.
